In PubChem BioAssay AID248 (DTP/NCI, 2004):
Values joined by “and” are separate entries in the source; they are usually repeats but may differ in a detail not shown here. Equal values may be shown once. Inconclusive results and toxic doses are left out. Cut-off read from the data, not from the text of the source: active = T/C of 150% or more; inactive = T/C below 125%.

Test system: L1210 leukemia ip in BDF1 mice, survival T/C
Assay: NCI In Vivo Anticancer Drug Screen. Data for tumor model L1210 Leukemia (intraperitoneal) in B6D2F1 (BDF1) mice
Details: endpoint: mean survival time, higher = longer survival
How it was run: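 Transplantable tumor model; survival measured in treated vs vehicle control mice. Value = treated/control.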

[1] = dose: 50.0 mg/kg/injection, schedule: Q01DX001 (ip), vehicle: carboxymethylcellulose (CMC)
[2] = dose: 100.0 mg/kg/injection, schedule: Q01DX001 (ip), vehicle: carboxymethylcellulose (CMC)
[3] = dose: 200.0 mg/kg/injection, schedule: Q01DX001 (ip), vehicle: carboxymethylcellulose (CMC)
[4] = dose: 100.0 mg/kg/injection, schedule: Q01DX001 (ip), vehicle: saline
[5] = dose: 200.0 mg/kg/injection, schedule: Q01DX001 (ip), vehicle: saline
[6] = dose: 400.0 mg/kg/injection, schedule: Q01DX001 (ip), vehicle: saline
[7] = dose: 100.0 mg/kg/injection, schedule: Q04DX003 (ip), vehicle: saline with Tween-80
[8] = dose: 200.0 mg/kg/injection, schedule: Q04DX003 (ip), vehicle: saline with Tween-80
[9] = dose: 400.0 mg/kg/injection, schedule: Q04DX003 (ip), vehicle: saline with Tween-80
[10] = dose: 100.0 mg/kg/injection, schedule: Q04DX003 (ip), vehicle: saline
[11] = dose: 200.0 mg/kg/injection, schedule: Q04DX003 (ip), vehicle: saline
[12] = dose: 400.0 mg/kg/injection, schedule: Q04DX003 (ip), vehicle: saline
[13] = dose: 100.0 mg/kg/injection, schedule: Q01DX009 (ip), vehicle: saline
[14] = dose: 200.0 mg/kg/injection, schedule: Q01DX009 (ip), vehicle: saline
[15] = dose: 100.0 mg/kg/injection, schedule: Q04DX002 (ip), vehicle: Klucel (hydroxypropylcellulose) (HPC)
[16] = dose: 400.0 mg/kg/injection, schedule: Q04DX002 (ip), vehicle: Klucel (hydroxypropylcellulose) (HPC)
[17] = dose: 100.0 mg/kg/injection, schedule: Q01DX009 (ip), vehicle: saline with Tween-80
[18] = dose: 100.0 mg/kg/injection, schedule: Q01DX001 (ip), vehicle: saline with Tween-80
[19] = dose: 200.0 mg/kg/injection, schedule: Q01DX001 (ip), vehicle: saline with Tween-80
[20] = dose: 400.0 mg/kg/injection, schedule: Q01DX001 (ip), vehicle: saline with Tween-80
[21] = dose: 100.0 mg/kg/injection, schedule: Q01DX009 (ip), vehicle: Klucel (hydroxypropylcellulose) (HPC)
[22] = dose: 200.0 mg/kg/injection, schedule: Q01DX009 (ip), vehicle: Klucel (hydroxypropylcellulose) (HPC)
[23] = dose: 400.0 mg/kg/injection, schedule: Q01DX009 (ip), vehicle: Klucel (hydroxypropylcellulose) (HPC)

Measured: T/C

COc1ccc(OCC(=O)N2CCCCCC2)cc1
inactive: [1] 100 % of control | dose: 50.0 mg/kg/injection, schedule: Q01DX009 (ip), vehicle: carboxymethylcellulose (CMC) 94 % of control | dose: 50.0 mg/kg/injection, schedule: Q04DX003 (ip), vehicle: carboxymethylcellulose (CMC) 103 % of control | [2] 106 % of control | dose: 100.0 mg/kg/injection, schedule: Q01DX009 (ip), vehicle: carboxymethylcellulose (CMC) 94 % of control and 96 % of control | dose: 100.0 mg/kg/injection, schedule: Q04DX002 (ip), vehicle: carboxymethylcellulose (CMC) 91 % of control | dose: 100.0 mg/kg/injection, schedule: Q04DX003 (ip), vehicle: carboxymethylcellulose (CMC) 100 % of control | [3] 109 % of control | dose: 200.0 mg/kg/injection, schedule: Q01DX009 (ip), vehicle: carboxymethylcellulose (CMC) 97 % of control and 100 % of control | dose: 200.0 mg/kg/injection, schedule: Q04DX002 (ip), vehicle: carboxymethylcellulose (CMC) 105 % of control | dose: 200.0 mg/kg/injection, schedule: Q04DX003 (ip), vehicle: carboxymethylcellulose (CMC) 102 % of control | dose: 400.0 mg/kg/injection, schedule: Q04DX002 (ip), vehicle: carboxymethylcellulose (CMC) 96 % of control

O=[N+]([O-])c1ccc(Oc2ccc(F)cc2)c([N+](=O)[O-])c1
inactive: dose: 50.0 mg/kg/injection, schedule: Q01DX001 (ip), vehicle: saline 103 % of control | [4] 103 % of control | [5] 97 % of control | [6] 105 % of control

Cc1ccc(Nc2cc(N)nc(N)n2)cc1Cl
inactive: dose: 100.0 mg/kg/injection, schedule: Q01DX Z (ip), vehicle: methylcellulose (MC) 101 % of control | dose: 200.0 mg/kg/injection, schedule: Q01DX Z (ip), vehicle: methylcellulose (MC) 89 % of control

C=CCOC(=O)Nc1cccc(OC(=O)NC(C)(C)C)c1
inactive: [7] 105 % of control | [8] 99 % of control | [9] 98 % of control

CC(C)(c1cccs1)c1cscc1C(=O)O
inactive: [10] 108 % of control | [11] 113 % of control | [12] 105 % of control

CC#CS(=O)(=O)c1ccccc1
inactive: dose: 100.0 mg/kg/injection, schedule: Q04DX003 (ip), vehicle: Klucel (hydroxypropylcellulose) (HPC) 94 % of control | dose: 200.0 mg/kg/injection, schedule: Q04DX003 (ip), vehicle: Klucel (hydroxypropylcellulose) (HPC) 95 % of control | dose: 400.0 mg/kg/injection, schedule: Q04DX003 (ip), vehicle: Klucel (hydroxypropylcellulose) (HPC) 98 % of control

CC(=O)OC1C=CCc2c(O)c3c(c(O)c21)C(=O)c1ccccc1C3=O (stereo not given)
inactive: [13] 91 % of control | [10] 90 % of control | [14] 109 % of control | [11] 88 % of control | dose: 400.0 mg/kg/injection, schedule: Q01DX009 (ip), vehicle: saline 103 % of control | [12] 91 % of control

CN(C)C(=N)[Se]
inactive: dose: 6.25 mg/kg/injection, schedule: Q01DX009 (ip), vehicle: saline 97 % of control | dose: 12.5 mg/kg/injection, schedule: Q01DX009 (ip), vehicle: saline 92 % of control

Cc1ccc(S(=O)(=O)NNC(=O)c2ccccc2NCCO)cc1
inactive: [4] 101 % of control | [5] 101 % of control | [6] 103 % of control

Clc1nc2ccccc2s1.Clc1nc2ccccc2s1.Clc1nc2ccccc2s1.Clc1nc2ccccc2s1.[Cl][Rh][Cl]
inactive: dose: 3.13 mg/kg/injection, schedule: Q04DX003 (ip), vehicle: distilled water + Tween-80 94 % of control | dose: 6.25 mg/kg/injection, schedule: Q04DX003 (ip), vehicle: distilled water + Tween-80 96 % of control | dose: 12.5 mg/kg/injection, schedule: Q04DX003 (ip), vehicle: distilled water + Tween-80 96 % of control | dose: 25.0 mg/kg/injection, schedule: Q04DX003 (ip), vehicle: distilled water + Tween-80 102 % of control | dose: 50.0 mg/kg/injection, schedule: Q04DX003 (ip), vehicle: distilled water + Tween-80 103 % of control | dose: 100.0 mg/kg/injection, schedule: Q04DX003 (ip), vehicle: distilled water + Tween-80 102 % of control | dose: 200.0 mg/kg/injection, schedule: Q04DX003 (ip), vehicle: distilled water + Tween-80 103 % of control

O=C(/C=C/c1ccccc1)c1ccccn1
inactive: [7] 100 % of control | [8] 104 % of control | [9] 100 % of control

COC(=O)c1ccccc1NS(=O)(=O)c1ccc(Cl)cc1
inactive: [15] 94 % of control | [16] 110 % of control

[N-]=Cc1c(O)cccc1[N+](=O)[O-].[N-]=Cc1cc([N+](=O)[O-])ccc1O.[Ni+2]
inactive: dose: 12.5 mg/kg/injection, schedule: Q04DX003 (ip), vehicle: saline with Tween-80 95 % of control | dose: 25.0 mg/kg/injection, schedule: Q04DX003 (ip), vehicle: saline with Tween-80 98 % of control | dose: 50.0 mg/kg/injection, schedule: Q04DX003 (ip), vehicle: saline with Tween-80 95 % of control | [7] 92 % of control | [8] 86 % of control

CCN(CC)CCOC(=O)c1ccc(Cl)cc1
inactive: dose: 50.0 mg/kg/injection, schedule: Q01DX009 (ip), vehicle: saline 100 % of control | [13] 96 % of control | [14] 96 % of control

COc1cc(N)nc(OC)n1
inactive: [17] 98 % of control | dose: 200.0 mg/kg/injection, schedule: Q01DX009 (ip), vehicle: saline with Tween-80 98 % of control | dose: 400.0 mg/kg/injection, schedule: Q01DX009 (ip), vehicle: saline with Tween-80 97 % of control

CCCC(C)CC(=O)CC(C)=O (stereo not given)
inactive: [18] 93 % of control | [19] 95 % of control | [20] 95 % of control

Cc1coc2c1[C@@H](O)[C@]1(C)[C@@H](C)CC[C@H](O)[C@]1(O)C2
inactive: [4] 97 % of control | [5] 95 % of control

CC(=O)n1c2c(n(C(C)=O)c1=O)CCCC2
inactive: [18] 102 % of control | [19] 98 % of control | [20] 102 % of control

CCOC(=O)c1ccc(NC(=O)/C=C/C(=O)O)cc1
inactive: [21] 100 % of control | [22] 95 % of control | [23] 98 % of control

[N-]=[N+]=NCC1OC(n2cnc3c(NC=O)ncnc32)CC1C(=O)O (stereo not given)
inactive: [1] 109 % of control | [2] 101 % of control | [3] 114 % of control | dose: 400.0 mg/kg/injection, schedule: Q01DX001 (ip), vehicle: carboxymethylcellulose (CMC) 95 % of control

CC(C)(O)OC1COC(C2CS2)C1O (stereo not given)
inactive: [15] 94 % of control | dose: 200.0 mg/kg/injection, schedule: Q04DX002 (ip), vehicle: Klucel (hydroxypropylcellulose) (HPC) 98 % of control | [16] 102 % of control

N#CCCOc1ccc(Cl)cc1
inactive: [7] 96 % of control | [8] 99 % of control

CC1(c2ccc(Cl)s2)C(=O)N(Cl)C(=O)N1Cl (stereo not given)
inactive: dose: 12.5 mg/kg/injection, schedule: Q01DX009 (ip), vehicle: saline with Tween-80 95 % of control | dose: 25.0 mg/kg/injection, schedule: Q01DX009 (ip), vehicle: saline with Tween-80 100 % of control | dose: 50.0 mg/kg/injection, schedule: Q01DX009 (ip), vehicle: saline with Tween-80 94 % of control and 89 % of control | [17] 93 % of control | [7] 96 % of control | [8] 98 % of control

CCN(CC)c1ccc(/C=C/C(=O)c2ccc(N(CC)CC)cc2)cc1
inactive: [21] 94 % of control | [22] 97 % of control | [23] 97 % of control
